In patent publication US8877744B2, “1,4-Oxazepines as BACE1 and/or BACE2 inhibitors” (Hoffmann-La Roche Inc., priority 2011, dated 2014) one finds IC50 data, which are given here for 18 compounds.

Where a name gives a salt, the structure may show the parent alone.

As usually defined, the IC50 is the midpoint of a concentration-inhibition curve.

The target of one assay is T1, endogenous cellular BACE2 (Rattus norvegicus, UniProt Q6IE75).
T1 construct: endogenous in cells; host or cells: INS-TMEM27 (INS1e-derived rat cell line with inducible full-length hTMEM27)
T1 sequence (Q6IE75 63-514): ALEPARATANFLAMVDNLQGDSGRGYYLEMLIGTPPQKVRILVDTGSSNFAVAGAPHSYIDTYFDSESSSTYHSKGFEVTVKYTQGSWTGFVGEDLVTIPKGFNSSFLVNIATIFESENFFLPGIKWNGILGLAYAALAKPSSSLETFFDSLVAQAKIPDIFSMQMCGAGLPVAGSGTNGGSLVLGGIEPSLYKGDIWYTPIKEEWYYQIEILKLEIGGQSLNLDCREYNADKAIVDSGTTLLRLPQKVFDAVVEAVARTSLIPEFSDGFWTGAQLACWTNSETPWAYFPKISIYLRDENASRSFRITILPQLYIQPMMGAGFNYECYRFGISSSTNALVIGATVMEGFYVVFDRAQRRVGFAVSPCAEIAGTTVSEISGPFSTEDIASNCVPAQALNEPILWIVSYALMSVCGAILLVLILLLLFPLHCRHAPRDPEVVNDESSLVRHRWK
Description: Assay for BACE inhibition by measuring cellular TMEM27 cleavage (INS-TMEM27 cells, ELISA). In kind it is cell-based. The note with it: INS-TMEM27 (Ins1e rat) cells, shed human TMEM27 by ELISA. From the text: Assay for BACE Inhibition by Measuring Cellular TMEM27 Cleavage:
The assay uses the principle of inhibition of human TMEM27 cleavage by endogenous cellular BACE2 in the Ins1e rat cell line and shedding from the cell surface into the culture medium, followed by detection in an ELISA assay Inhibition of BACE2 prevents the cleavage and shedding in a dose-dependent manner
The stable cell line “INS-TMEM27” represents an INS1e-derived cell line with inducible expression (using the TetOn system) of full-length hTMEM27 in a doxycycline-dependent manner. The cells are cultured throughout the experiment in RPMI1640+Glutamax (Invitrogen) Penicillin/Streptomycin, 10% Fetal bovine serum, […], […], 100 micrograms/ml G418 and 100 microgram/ml hygromycin and are grown inadherent culture at 37° C. in a standard CO2 cell culture incubator.
INS-TMEM27 cells are seeded in 96-well plates. After 2 days in culture, BACE2 inhibitor is added in a range of concentrations as required by the assay and after a further two hours, doxycycline is added to a final concentration of 500 ng/ml. The cells are incubated for a further 46 hours and the supernatant harvested for detection of shed TMEM27.
An ELISA assay (using a pair of mouse anti-human-TMEM27 antibodies, raised against the extracellular domain of TMEM27) is used for detection of TMEM27 in the culture medium. An EC50 for BACE2 inhibition is calculated using the ELISA readout for each inhibitor concentration with standard curve-fitting software such as XLFit for the Excel spreadsheet program.
(An ELISA detects its analyte on a solid surface through an enzyme-linked reagent.)
The compound `CC1(C)OCC(N)=N[C@](C)(c2cc(-c3cc(Cl)cc(Cl)c3)ccc2F)C1(F)F` [Example 10, (R)-5-(3′,5′-Dichloro-4-fluoro-biphenyl-3-yl)-6,6-difluoro-5,7,7-trimethyl-2,5,6,7-tetrahydro-[1,4]oxazepin-3-ylamine] showed an IC50 of 1330 nM. The same measure, in the same setting: for `CC1(C)OCC(N)=N[C@](C)(c2cc(-c3cccc(C#N)c3)ccc2F)C1(F)F` [Example 14, 3′-((R)-3-Amino-6,6-difluoro-5,7,7-trimethyl-2,5,6,7-tetrahydro-[1,4]oxazepin-5-yl)-4′-fluoro-biphenyl-3-carbonitrile] the value was 279 nM; for `CC1(C)OCC(N)=N[C@](C)(c2cc(-c3cncc(Cl)c3)ccc2F)C1(F)F` [Example 4, (R)-5-[5-(5-Chloro-pyridin-3-yl)-2-fluoro-phenyl]-6,6-difluoro-5,7,7-trimethyl-2,5,6,7-tetrahydro-[1,4]oxazepin-3-ylamine], 592 nM.

In a further assay the target is T2, BACE1 (Homo sapiens, UniProt P56817).
T2 construct: endogenous in cells; host or cells: HEK293 stably transfected with human APP695 wt
T2 sequence (P56817 46-501): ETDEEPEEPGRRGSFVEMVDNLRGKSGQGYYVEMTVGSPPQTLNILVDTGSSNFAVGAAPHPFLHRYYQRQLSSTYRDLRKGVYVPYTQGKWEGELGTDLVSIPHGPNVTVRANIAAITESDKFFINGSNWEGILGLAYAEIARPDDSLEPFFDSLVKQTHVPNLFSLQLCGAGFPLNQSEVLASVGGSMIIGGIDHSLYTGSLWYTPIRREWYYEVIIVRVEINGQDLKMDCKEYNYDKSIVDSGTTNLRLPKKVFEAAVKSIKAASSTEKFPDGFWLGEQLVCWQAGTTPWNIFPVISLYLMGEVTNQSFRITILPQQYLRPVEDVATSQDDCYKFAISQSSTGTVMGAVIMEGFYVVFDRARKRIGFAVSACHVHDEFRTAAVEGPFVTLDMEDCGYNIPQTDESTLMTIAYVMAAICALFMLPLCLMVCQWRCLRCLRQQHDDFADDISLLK
The experiment in a line: Cellular Aβ-lowering assay a): HEK293 cells expressing human APP695, Aβ40 ELISA. In kind it is cell-based. The note with it: Aβ40 in supernatant by ELISA, 18-20 hrs incubation. On the procedure:
Cellular Aβ-Lowering Assay:
a) Human HEK293 cells which are stably transfected with a vector expressing a cDNA of the human APP wt gene (APP695) were used to assess the potency of the compounds in a cellular assay. The cells were seeded in 96-well microtiter plates in cell culture medium (Iscove, plus 10% (v/v) fetal bovine serum, glutamine, penicillin/streptomycin) to about 80% confluence and the compounds were added at a 10× concentration in 1/10 volume of medium without FCS containing 8% DMSO (final concentration of DMSO was kept at 0.8% v/v). After 18-20 hrs incubation at 37° C. and 5% CO2 in a humidified incubator the culture supernatant was harvested for the determination of Aβ40 concentrations. 96 well ELISA plates (e.g., Nunc MaxiSorb) were coated with monoclonal antibody which specifically recognize the C-terminal end of Aβ40 (Brockhaus et al., NeuroReport 9, 1481-1486; 1998). After blocking of non-specific binding sites with e.g. 1% BSA and washing, the culture supernatants were added in suitable dilutions together with a horseradish peroxidase-coupled Aβ detection antibody (e.g., antibody 4G8, Senetek, Maryland Heights, Mo.) and incubated for 5 to 7 hrs. Subsequently the wells of the microtiter plate were washed extensively with Tris-buffered saline containing 0.05% Tween 20 and the assay was developed with tetramethylbenzidine/H2O2 in citric acid buffer. After stopping the reaction with one volume 1 N H2SO4 the reaction was measured in an ELISA reader at 450 nm wavelength. The concentrations of Aβ in the culture supernatants were calculated from a standard curve obtained with known amounts of pure Aβ peptide.
For `CC1(C)OCC(N)=N[C@](C)(c2cc(-c3cc(Cl)cc(Cl)c3)ccc2F)C1(F)F` [Example 10, (R)-5-(3′,5′-Dichloro-4-fluoro-biphenyl-3-yl)-6,6-difluoro-5,7,7-trimethyl-2,5,6,7-tetrahydro-[1,4]oxazepin-3-ylamine], 1590 nM corresponded to half-maximal inhibition (IC50). The compound `CC1(C)OCC(N)=N[C@](C)(c2cc(-c3cccc(C#N)c3)ccc2F)C1(F)F` [Example 14, 3′-((R)-3-Amino-6,6-difluoro-5,7,7-trimethyl-2,5,6,7-tetrahydro-[1,4]oxazepin-5-yl)-4′-fluoro-biphenyl-3-carbonitrile] yielded an IC50 of 186 nM.

In turn, `CC1(C)OCC(N)=N[C@](C)(c2cc(-c3nc4ccc(Cl)cc4o3)ccc2F)C1(F)F` [Example 19, (R)-5-[5-(6-Chloro-benzooxazol-2-yl)-2-fluoro-phenyl]-6,6-difluoro-5,7,7-trimethyl-2,5,6,7-tetrahydro-[1,4]oxazepin-3-ylamine hydrochloride] registered an IC50 of 250 nM. Take `Cn1nccc1-c1ccc(F)c([C@@]2(C)N=C(N)COC(C)(C)C2(F)F)c1` [Example 7, (R)-6,6-Difluoro-5-[2-fluoro-5-(2-methyl-2H-pyrazol-3-yl)-phenyl]-5,7,7-trimethyl-2,5,6,7-tetrahydro-[1,4]oxazepin-3-ylamine]: the half-maximal inhibitory concentration (IC50) was found to be 540 nM. As to `CC1(C)OCC(N)=N[C@](C)(c2cc(C3=CCOCC3)ccc2F)C1(F)F` [Example 5, (R)-5-[5-(3,6-Dihydro-2H-pyran-4-yl)-2-fluoro-phenyl]-6,6-difluoro-5,7,7-trimethyl-2,5,6,7-tetrahydro-[1,4]oxazepin-3-ylamine], it took 430 nM to reach half-maximal inhibition (IC50). The IC50 values of the last two compounds are within 1.5-fold of each other. On to `CC1(C)OCC(N)=N[C@](C)(c2cc(-c3ccc(C#N)cc3F)ccc2F)C1(F)F` [Example 13, 3′-((R)-3-amino-6,6-difluoro-5,7,7-trimethyl-2,5,6,7-tetrahydro-[1,4]oxazepin-5-yl)-2,4′-difluoro-biphenyl-4-carbonitrile], for which the IC50 was 92 nM. `CC1(C)OCC(N)=N[C@](C)(c2cc(-c3cncc(Cl)c3)ccc2F)C1(F)F` [Example 4, (R)-5-[5-(5-Chloro-pyridin-3-yl)-2-fluoro-phenyl]-6,6-difluoro-5,7,7-trimethyl-2,5,6,7-tetrahydro-[1,4]oxazepin-3-ylamine] showed an IC50 of 205 nM. Compound `CC1(C)OCC(N)=N[C@](C)(c2cc(C3CCOCC3)ccc2F)C1(F)F` [Example 8, (R)-6,6-Difluoro-5-[2-fluoro-5-(tetrahydro-pyran-4-yl)-phenyl]-5,7,7-trimethyl-2,5,6,7-tetrahydro-[1,4]oxazepin-3-ylamine] gave an IC50 of 650 nM. `CC1(C)OCC(N)=N[C@](C)(c2cc(-c3cncnc3)c(F)cc2F)C1(F)F` [Example 25, (R)-6,6-Difluoro-5-(2,4-difluoro-5-pyrimidin-5-yl-phenyl)-5,7,7-trimethyl-2,5,6,7-tetrahydro-[1,4]oxazepin-3-ylamine] returned an IC50 of 7 nM. The same measure, in the same setting: the figure for `CC1(C)OCC(N)=N[C@](C)(c2cc(C#Cc3cccc(Cl)c3)ccc2F)C1(F)F` [Example 9, (R)-5-[5-(3-Chloro-phenylethynyl)-2-fluoro-phenyl]-6,6-difluoro-5,7,7-trimethyl-2,5,6,7-tetrahydro-[1,4]oxazepin-3-ylamine] is 1340 nM; for `CC1(C)OCC(N)=N[C@](C)(c2cc(-c3cc(F)cc(F)c3)ccc2F)C1(F)F` [Example 3, (R)-6,6-Difluoro-5,7,7-trimethyl-5-(4,3′,5′-trifluoro-biphenyl-3-yl)-2,5,6,7-tetrahydro-[1,4]oxazepin-3-ylamine] it is 180 nM. Consider `CC1(C)OCC(N)=N[C@](C)(c2cc(-c3cnn(-c4ccc(F)cc4)c3)ccc2F)C1(F)F` [Example 6, (R)-6,6-Difluoro-5-{2-fluoro-5-[1-(4-fluoro-phenyl)-1H-pyrazol-4-yl]-phenyl}-5,7,7-trimethyl-2,5,6,7-tetrahydro-[1,4]oxazepin-3-ylamine], for which the IC50 was determined as 520 nM. `CC1(C)OCC(N)=N[C@](C)(c2cc(-c3cncc(Cl)c3)c(F)cc2F)C1(F)F` [Example 26, (R)-5-[5-(5-Chloro-pyridin-3-yl)-2,4-difluoro-phenyl]-6,6-difluoro-5,7,7-trimethyl-2,5,6,7-tetrahydro-[1,4]oxazepin-3-ylamine] showed an IC50 of 81 nM. For the compound `CC1(C)OCC(N)=N[C@](C)(c2cc(-c3cncnc3)ccc2F)C1(F)F` [Example 2, (R)-6,6-Difluoro-5-(2-fluoro-5-pyrimidin-5-yl-phenyl)-5,7,7-trimethyl-2,5,6,7-tetrahydro-[1,4]oxazepin-3-ylamine], half-maximal inhibition (IC50) was put at 56 nM. Compound `CC1(C)OCC(N)=N[C@](C)(c2cc(-c3ccc(C#N)cc3)c(F)cc2F)C1(F)F` [Example 27, 5′-((R)-3-amino-6,6-difluoro-5,7,7-trimethyl-2,5,6,7-tetrahydro-[1,4]oxazepin-5-yl)-2′,4′-difluoro-biphenyl-4-carbonitrile] came in with an IC50 of 430 nM. `Cc1nc(C#Cc2ccc(F)c([C@@]3(C)N=C(N)COC(C)(C)C3(F)F)c2)cs1` [Example 17, (R)-6,6-Difluoro-5-[2-fluoro-5-(2-methyl-thiazol-4-ylethynyl)-phenyl]-5,7,7-trimethyl-2,5,6,7-tetrahydro-[1,4]oxazepin-3-ylamine] returned a 50% inhibitory concentration (IC50) of 800 nM. `CC1(C)OCC(N)=N[C@](C)(c2cc(-c3cccc(C#N)c3)c(F)cc2F)C1(F)F` [Example 28, 5′-((R)-3-Amino-6,6-difluoro-5,7,7-trimethyl-2,5,6,7-tetrahydro-[1,4]oxazepin-5-yl)-2′,4′-difluoro-biphenyl-3-carbonitrile] showed an IC50 of 790 nM. On the same count and under the same terms, for `C[C@]1(c2cc(-c3cncnc3)ccc2F)N=C(N)COCC1(F)F` [Example 1, (R)-6,6-Difluoro-5-(2-fluoro-5-pyrimidin-5-yl-phenyl)-5-methyl-2,5,6,7-tetrahydro-[1,4]oxazepin-3-ylamine formate] the value was 253 nM.
